Here are results for 16 molecules from patent publication US12421211B2, “Heterocyclic compounds” (Hoffmann-La Roche Inc., priority 2021, dated 2025).

The structures appear in SMILES notation. ≈ marks a conversion by molar mass, not a printed value. Structures can show the parent of a compound that is named as a salt.

The first assay concerns Acinetobacter baumannii ATCC17961. The assay is described as follows: Antimicrobial susceptibility testing: 90% growth inhibitory concentration (IC90) determination. In kind it is cell-based. The note with it: Acinetobacter baumannii, ATCC17961, 16 h, 90% growth inhibitory concentration, Acinetobacter baumannii ATCC17961, Iso-Sensitest broth, OD 600 nm over 16 h; read-out: ATCC 17961 IC90. In outline:
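Growth inhibition derived in log phase from OD600 kinetics (every 20 minutes, 16h, 35±2° C) of ATCC17961 in Iso-Sensitest medium, inoculum ~5×10^5 CFU/ml. Compounds tested as twofold series, 10 points (e.g. 50 to 0.097 μM final); IC90 and IC50 reported.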
Consider `Cc1nn(CC(=O)Nc2ccc(F)nn2)cc1-c1ccc(-c2cnc(C(=O)Nc3ccc(C(=O)N4CCN(C(=O)C5CC[N+](C)(C)CC5)CC4)c(Cl)c3)n2C)c(F)c1F` [Example G31, N-[3-chloro-4-[4-(1,1-dimethylpiperidin-1-ium-4-carbonyl)piperazine-1-carbonyl]phenyl]-5-[2,3-difluoro-4-[1-[2-[(6-fluoropyridazin-3-yl)amino]-2-oxo-ethyl]-3-methyl-pyrazol-4-yl]phenyl]-1-methyl-imidazole-2-carboxamide; formate], for which the IC90 turned out to be 140 nM. Regarding `COCCn1ncc(-c2ccc(-c3cnc(C(=O)Nc4ccc(C(=O)N5CCN(C(=O)C6CC[N+](C)(C)CC6)CC5)c(Cl)c4)n3C)c(F)n2)c1C` [Example F57, N-[3-chloro-4-[4-(1,1-dimethylpiperidin-1-ium-4-carbonyl)piperazine-1-carbonyl]phenyl]-5-[2-fluoro-6-[1-(2-methoxyethyl)-5-methyl-pyrazol-4-yl]-3-pyridyl]-1-methyl-imidazole-2-carboxamide; formate], the IC90 came to 880 nM.

Consider `Cc1nn(CC(=O)N2CCCCC2)cc1-c1ccc(-c2cnc(C(=O)Nc3ccc(C(=O)N4CCN(C(=O)C5CC[N+](C)(C)CC5)CC4)c(Cl)c3)n2C)c(F)c1F` [Example G29, N-[3-chloro-4-[4-(1,1-dimethylpiperidin-1-ium-4-carbonyl)piperazine-1-carbonyl]phenyl]-5-[2,3-difluoro-4-[3-methyl-1-[2-oxo-2-(1-piperidyl)ethyl]pyrazol-4-yl]phenyl]-1-methyl-imidazole-2-carboxamide; formate], for which the IC90 amounted to 330 nM.

As to `COCCn1cc(-c2ccc(-c3cnc(C(=O)Nc4ccc(C(=O)N5CCN(C(=O)C[N+]6(C)CCC(C(N)=O)C6)CC5)c(Cl)c4)n3C)c(F)c2F)c(C)n1` (stereo not shown) [Example C7, N-[4-[4-[2-(3-carbamoyl-1-methyl-pyrrolidin-1-ium-1-yl)acetyl]piperazine-1-carbonyl]-3-chloro-phenyl]-5-[2,3-difluoro-4-[1-(2-methoxyethyl)-3-methyl-pyrazol-4-yl]phenyl]-1-methyl-imidazole-2-carboxamide; formate], the IC90 turned out to be 140 nM.

`Cc1nn(CC(=O)Nc2ccncc2)cc1-c1ccc(-c2cnc(C(=O)Nc3ccc(C(=O)N4CCN(C(=O)C5CC[N+](C)(C)CC5)CC4)c(Cl)c3)n2C)c(F)c1F` [Example G17, N-[3-chloro-4-[4-(1,1-dimethylpiperidin-1-ium-4-carbonyl)piperazine-1-carbonyl]phenyl]-5-[2,3-difluoro-4-[3-methyl-1-[2-oxo-2-(4-pyridylamino)ethyl]pyrazol-4-yl]phenyl]-1-methyl-imidazole-2-carboxamide; chloride]: the IC90 is 720 nM. Consider `Cc1c(-c2ccc(-c3cnc(C(=O)Nc4ccc(C(=O)N5CCN(C(=O)C6CC[N+](C)(C)CC6)CC5)c(Cl)c4)n3C)c(F)c2F)cnn1CC(=O)NC(C)(C)C` [Example G18, 5-[4-[1-[2-(tert-butylamino)-2-oxo-ethyl]-5-methyl-pyrazol-4-yl]-2,3-difluoro-phenyl]-N-[3-chloro-4-[4-(1,1-dimethylpiperidin-1-ium-4-carbonyl)piperazine-1-carbonyl]phenyl]-1-methyl-imidazole-2-carboxamide; formate], for which the 90% effect concentration (IC90) was found to be 510 nM. As to `COCCn1ncc(-c2ccc(-c3cnc(C(=O)Nc4ccc(C(=O)N5CCC(C(=O)NCCCc6cc[n+](CC(=O)O)c(CCCN)c6)CC5)c(Cl)c4)n3C)c(F)c2F)c1C` [Example O12, 2-[2-(3-aminopropyl)-4-[3-[[1-[2-chloro-4-[[5-[2,3-difluoro-4-[1-(2-methoxyethyl)-5-methyl-pyrazol-4-yl]phenyl]-1-methyl-imidazole-2-carbonyl]amino]benzoyl]isonipecotoyl]amino]-propyl]pyridin-1-ium-1-yl]acetic acid; formate], the 90% effect concentration (IC90) came out at 339 nM. `Cn1c(-c2ccc(-c3c[nH]nc3-c3cn[nH]c3)c(F)c2F)cnc1C(=O)Nc1ccc(C(=O)N2CCN(C(=O)C3CC[N+](C)(C)CC3)CC2)c(Cl)c1` [Example F48, N-[3-chloro-4-[4-(1,1-dimethylpiperidin-1-ium-4-carbonyl)piperazine-1-carbonyl]phenyl]-5-[2,3-difluoro-4-[3-(1H-pyrazol-4-yl)-1H-pyrazol-4-yl]phenyl]-1-methyl-imidazole-2-carboxamide; formate]: the 90% effect concentration (IC90) amounted to 470 nM.

Staying with this assay, now noted: Acinetobacter baumannii, ATCC17961, 16 h, read-out: ATCC 17961 IC90.
Consider `COCCn1ncc(-c2ccc(-c3cnc(C(=O)Nc4ccc(C(=O)N5CCN(C(=O)C6CC[N+](C)(CC(=O)NN)CC6)CC5)c(Cl)c4)n3C)c(F)c2F)c1C` (stereo not shown) [Example B17, N-[3-chloro-4-[4-[1-(2-hydrazino-2-oxo-ethyl)-1-methyl-piperidin-1-ium-4-carbonyl]piperazine-1-carbonyl]phenyl]-5-[2,3-difluoro-4-[1-(2-methoxyethyl)-5-methyl-pyrazol-4-yl]phenyl]-1-methyl-imidazole-2-carboxamide; formic acid; formate], for which the IC90 stood at 260 nM.

Take `COCCn1ncc(-c2ccc(-c3cnc(C(=O)Nc4ccc(C(=O)N5CCN(C(=O)CCC[N+](CCCCN)(CCCCN)CC(=O)O)CC5)c(Cl)c4)n3C)c(F)c2F)c1C` [Example P2, bis(4-aminobutyl)-(carboxymethyl)-[4-[4-[2-chloro-4-[[5-[2,3-difluoro-4-[1-(2-methoxyethyl)-5-methyl-pyrazol-4-yl]phenyl]-1-methyl-imidazole-2-carbonyl]amino]benzoyl]piperazin-1-yl]-4-oxo-butyl]ammonium; formate]: the IC90 was found to be 66 nM.

A further assay relates to Acinetobacter baumannii ATCC17978. In words: Minimal Inhibitory Concentration (MIC) assay. Format: cell-based. The note with it: Acinetobacter baumannii ATCC17978, CAMHB medium, 20 hours at 35±2° C., visual reading; read-out: MIC AB. ATCC17978. As for the experimental part: Minimal Inhibitory Concentration Protocol (MIC) Assay:
Table 2 provides the in vitro potency of the compounds of present invention obtained against the strain Acinetobacter baumannii ATCC17978, which was assessed by an MIC (Minimal Inhibitory Concentration) assay as follows.
Test compounds were prepared from 10 mM DMSO stock solutions. The top dose was diluted from 10 mM to 2.5 mM by DMSO, followed by serial 2-fold 11 points dilutions in DMSO in a master plate (Greiner, Cat No: 651201). 2 μL compounds were transferred from the master plate into a new 96-well assay plate (Costar, 3599).
The growth medium […] Mueller Hinton Broth (CAMHIB) was prepared by adding 22 g powder (BD, 212322) in 1 L purified water, autoclaved, and supplemented with sterilized CaCl2 (20 mg per liter) and MgCl2 (10 mg per liter).
Vials of each of the test microorganisms were maintained frozen in the vapor phase of a liquid nitrogen freezer. Took out the bacterial strain ATCC 17978 from liquid nitrogen freezer, thawed it at room temperature, and diluted the bacterial in the CAMHB medium to achieve a final inoculum of 2×10^5 CFU/mL. 98 μL of the adjusted bacteria suspension was dispensed to the assay plate and pipetted 5 times.
Then the assay plates were incubated for 20 hours at 35±2° C. in ambient air with humidity. Following incubation, MIC […] value, the lowest concentration of drug that inhibits visible growth of the microorganism, was recorded by visual judgment of bacterial growth through magnification mirror of MIC reader, and the assay plates were photographed with Qcount system as image raw data. Meanwhile, the D600 of assay plates was recorded with SpectraMax Plus384 as GD raw data.
As for `Cn1c(-c2ccc(-c3cn(CC(N)=O)nc3C(F)(F)F)c(F)c2F)cnc1C(=O)Nc1ccc(C(=O)N2CCN(C(=O)C3CC[N+](C)(C)CC3)CC2)c(Cl)c1` [Example F35, 5-[4-[1-(2-amino-2-oxo-ethyl)-3-(trifluoromethyl)pyrazol-4-yl]-2,3-difluoro-phenyl]-N-[3-chloro-4-[4-(1,1-dimethylpiperidin-1-ium-4-carbonyl)piperazine-1-carbonyl]phenyl]-1-methyl-imidazole-2-carboxamide; formate], the minimum inhibitory concentration (MIC) was 1.24 µM. The same measure, in the same setting: with `Cc1nn(CC(=O)NC2CCOC2)cc1-c1ccc(-c2cnc(C(=O)Nc3ccc(C(=O)N4CCN(C(=O)C5CC[N+](C)(C)CC5)CC4)c(Cl)c3)n2C)c(F)c1F` (stereo not shown) [Example G20, N-[3-chloro-4-[4-(1,1-dimethylpiperidin-1-ium-4-carbonyl)piperazine-1-carbonyl]phenyl]-5-[2,3-difluoro-4-[3-methyl-1-[2-oxo-2-(tetrahydrofuran-3-ylamino)ethyl]pyrazol-4-yl]phenyl]-1-methyl-imidazole-2-carboxamide; formate] the figure was 2.52 µM; with `COCCn1ncc(-c2ccc(-c3cnc(C(=O)Nc4ccc(C(=O)N5CCN(C(=O)C6CCNCC6)CC5)c(Cl)c4)n3C)c(Cl)c2F)c1C` [Example E4, 5-[2-chloro-3-fluoro-4-[1-(2-methoxyethyl)-5-methyl-pyrazol-4-yl]phenyl]-N-[3-chloro-4-[4-(piperidine-4-carbonyl)piperazine-1-carbonyl]phenyl]-1-methyl-imidazole-2-carboxamide; formic acid], 0.57 µM (≈ 0.414 µg/mL). For `Cn1c(-c2ccc(-c3cn(C[C@H](O)CO)nc3C(F)(F)F)c(F)c2F)cnc1C(=O)Nc1ccc(C(=O)N2CCN(C(=O)C3CC[N+](C)(C)CC3)CC2)c(Cl)c1` [Example F8, N-[3-chloro-4-[4-(1,1-dimethylpiperidin-1-ium-4-carbonyl)piperazine-1-carbonyl]phenyl]-5-[4-[1-[(2S)-2,3-dihydroxypropyl]-3-(trifluoro-methyl)pyrazol-4-yl]-2,3-difluoro-phenyl]-1-methyl-imidazole-2-carboxamide; formate], the minimal inhibitory concentration (MIC) is 1.41 µM. Still for that read-out and setting: with `Cc1n[nH]cc1-c1ccc(-c2cnc(C(=O)Nc3ccc(C(=O)N4CCN(C(=O)[C@@H]5C[C@@H](O)C[N+]5(C)C)CC4)c(Cl)c3)n2C)c(F)c1F` [Example D19, N-[3-chloro-4-[4-[(2S,4R)-4-hydroxy-1,1-dimethyl-pyrrolidin-1-ium-2-carbonyl]piperazine-1-carbonyl]phenyl]-5-[2,3-difluoro-4-(3-methyl-1H-pyrazol-4-yl)phenyl]-1-methyl-imidazole-2-carboxamide; formate] the figure was 1.07 µM; with `Cc1c(-c2ccc(-c3cnc(C(=O)Nc4ccc(C(=O)N5CCN(C(=O)C6CCNCC6)CC5)c(Cl)c4)n3C)c(F)c2F)cnn1CC(F)F` [Example E1, N-[3-chloro-4-[4-(piperidine-4-carbonyl)piperazine-1-carbonyl]phenyl]-5-[4-[1-(2,2-difluoroethyl)-5-methyl-pyrazol-4-yl]-2,3-difluoro-phenyl]-1-methyl-imidazole-2-carboxamide], 0.56 µM (≈ 0.4 µg/mL).

What is called IC90 is the concentration at which the effect reaches the 90% level. A word on the MIC: it is the lowest concentration found to suppress growth.
